# From patent US10772909B2, “System and method for insulin-mimetic of cartilage, bone, or osteochondral repair and piezoelectric composite scaffold” (New Jersey Institute of Technology, priority 2016, dated 2020)
# Test system: collagen type II
# Test: Chondrogenesis culture: gene expression by RT-PCR, collagen type II
# Type: cell-based, human
# Conditions: for collagen type II gene expression vs 0 and 1 mM groups: CCM without insulin, days 14 and 28; for collagen type II gene expression vs 0 mM: day 14
# Procedure: Chondrogenesis Culture. Cryopreserved MSCs were thawed and expanded in GM until 70-80% confluent. Cells were trypsininzed and then seeded on 6 mm diameter scaffold disks at 1.76×10^5 cells/cm^2 and cultured for 28 days in GM, chondrogenic induction medium (CCM), or CCM without insulin, according to previously published methods. CCM consisted of DMEM high glucose containing 4 mM L-glutamine (Invitrogen, Grand Island, N.Y., USA), 0.1 μM dexamethasone (Sigma-Aldrich), 0.17 mM ascorbic acid-2-phosphate (Wako Chemicals, Richmond, Va., USA), 1% ITS+(6.25 µg/mL insulin, 6.25 µg/mL transferrin, 6.25 ng/mL selenous acid, 5.35 μg/ml linoleic acid and 1.25 mg of bovine serum albumin) Premix Culture Supplement (Corning, Corning, N.Y., USA), 1× antibiotic-antimycotic, 1 mM sodium pyruvate (Sigma-Aldrich), 0.35 mM proline (Sigma-Aldrich), and 10 ng/mL recombinant human transforming growth factor-beta3 (TGF-β3, ProSpec, Israel). CCM without insulin consisted of CCM where the 1% ITS+Premix Culture Supplement was substituted with 1% stock solution (6.25 μg/ml transferrin and 6.25 ng/ml selenous acid, 5.35 μg/ml lionleic acid (Sigma-Aldrich) and 1.25 mg of bovine serum albumin (Fisher Scientific). Na2WO4 was added to all media leading to final Na2WO4 concentrations of 0, 0.01, 0.1 and 1 mM. Samples were harvested and analyzed for sulfated glycosaminoglycans (sGAG), cell number and gene expression at day 14 and 28 and for collagen type II and immunostaining at day 28.
# Gene expression was evaluated using quantitative reverse transcription (RT)-polymerase chain reaction (PCR) analysis. RT-PCR was performed with RNeasy Micro Kit and SYBR Green RT-PCR Kit (Qiagen; Valencia, Calif., USA) using the MX4000 detection system (Stratagene) according to the manufacturer's protocol. Relative gene expression of SOX-9, aggrecan and collagen type II were determined. Samples (n=4 per group) were harvested and digested using Lysis Buffer. RNA was isolated from the samples using RNeasy Micro Kit (Qiagen) including DNA digestion step (RNase Free DNase Set; Qiagen). The RNA quantity and integrity were determined by measuring the absorbance at 260 nm and the absorbance ratio of 260 nm/280 nm, respectively, using Nanodrop™ Spectrophotometer (Thermo Fisher Scientific). Quantitative PCR analysis was performed using QuantiTect SYBR Green supermix including the QuantiTect Primer Assays. The reverse transcription step ran for 30 minutes at 50° C., 15 minutes at 95° C. of PCR activation followed by forty cycle of amplification consisting of 15 s denaturation at 94° C., 30 s of annealing at 55° C., and 30 s of extension at 72° C. A melting curve analysis of the RT-PCR product was included for each reaction. Samples were analyzed in triplicate and the value of each gene was normalized to the reference gene ribosomal protein, large, P0 (RPLP0) for the same sample (ΔCT). Primers were purchased from Qiagen (Hs_ACAN, QT00001365; Hs_SOX9, QT00001498; Hs_COL2A1, QT00049518; and Hs_RPLP0 QT00075012).
structure (smiles),measurement,setting,value
"[Na+].[Na+].[O]=[W](=[O])([O-])[O-] [Na2WO4, sodium tungstate]","collagen type II gene expression, change between days 14 and 28","0.01 mM Na2WO4, CCM",significant increase in collagen type II expression
same,collagen type II gene expression vs 0 and 1 mM groups,0.01 mM Na2WO4,significantly higher
same,collagen type II gene expression vs 0 mM,"0.01 mM Na2WO4, CCM, p<0.001",significantly higher collagen type II
same,collagen type II gene expression vs all groups,"0.01 mM Na2WO4, CCM, day 28, p<0.001",significantly higher
same,collagen type II gene expression vs 0 and 1 mM groups,0.1 mM Na2WO4,significantly higher
same,collagen type II gene expression vs 0 mM,"0.1 mM Na2WO4, CCM, p<0.001",significantly higher collagen type II
same,collagen type II gene expression,"1 mM Na2WO4, CCM",lowest gene expression
same,collagen type II gene expression (chondrogenic genes),GM with Na2WO4,no significant upregulation of chondrogenic genes
